Results on twelve compounds are retold here after paper PMC9495972, “Dissecting the Activity of Catechins as Incomplete Aldose Reductase Differential Inhibitors through Kinetic and Computational Approaches” (Biology, 2022).

Entries after “also recorded” stand apart in the source; their conditions may differ.

For experiment [1], the target named is T1, human recombinant AKR1B1 (Homo sapiens, UniProt P15121).
T1 construct: made in house
As to the kind of experiment: Inhibition kinetic analysis of AKR1B1-dependent reduction of L-idose, HNE and GSHNE. Type of experiment: biochemical. The note with it: for Km: in the absence of inhibitors, read-out: KM of the substrate; for Km / kcat (k+2) of the substrate: at least 20 independent experiments; for kcat (k+2) of the substrate: in the absence of the inhibitor; for k+4: kinetic constant of ternary complex EIS to products. The protocol: (§1) The AKR1B1 activity was determined at 37 °C, as previously described, monitoring the decrease in absorbance at 340 nm linked to NADPH oxidation (ε340 = 6.22 mM^−1·cm^−1) using a Biochrom Libra S60 spectrophotometer. The standard assay mixture (0.7 mL) contained 0.25 M sodium phosphate buffer pH 6.8, 0.18 mM NADPH, 0.4 M ammonium sulfate, 0.5 mM EDTA, and 4.7 mM GAL. One unit of enzyme activity is the amount of enzyme that catalyzes the conversion of 1 µmol of substrate/min in the above assay conditions.
(§2) The human recombinant AKR1B1 was expressed and purified to electrophoretic homogeneity, as previously described. […] The purified enzyme was stored at −80 °C in a 10 mM sodium phosphate buffer pH 7.0 containing 2 mM DTT and 30% (w/v) glycerol. Before use, AKR1B1 was extensively dialyzed against 10 mM sodium phosphate buffer pH 7.0.
The kinetic parameters ^appkcat and ^appKM were evaluated by non-linear regression analysis of rate measurements vs. substrate concentration according to Michaelis-Menten equation. The analysis was performed through GraphPad Prism 7.04 software by a non-linear “Robust Regression” analysis in which each point is individually weighted through iterative weighing of the smallest squares. The same approach was adopted to analyze the dependence of ^appkcat, ^appKM, and ^appKM/^appkcat from the concentration of the inhibitors [I], making use of previously derived equations [27] (see text).
The hyperbolic kinetic equation for an incomplete mixed type of inhibition analyzed with both branches of product formation at the steady state and with the inhibitor binding at equilibrium, was defined using the apparent kinetic parameters ^appKM and ^appkcat (Equations (1)–(3), see ref [27] for further details). (1) kappcat=Ki*k+2+k+4[I]/Ki*+[I] (2) appKM=KMKi*+(Ki*/KiKM+k+4/k+1)[I]+k+4/Kik+1[I]^2/Ki*+[I] (3) appKM/appkcat= KMKi*+(Ki*/KiKM+k+4/k+1)[I]+k+4/Kik+1[I]^2/Ki*k+2+k+4[I]
Thus, ^appkcat and ^appKM values emerging from non-linear regression analysis of primary data (Figure 3) were analyzed through non-linear regression using Equations (1) and (2), respectively. […] The above starting values of kcat and KM derived from at least 20 independent experiments in which kinetic parameters were measured in the absence of inhibitors. […] The k+4 values are reported in Table 1 as the average of values emerging from ^appKM/^appkcat versus [I] (Equation (3) or Equation (4)) and 1/^appkcat versus [I] (Equation (1)) plots.

Experiment [2] relates to human AKR1B1. On the set-up: method as in PMID 32640594. Conditions: in the absence of GCG; cited from earlier work.
Experiment [3] relates to human AKR1B1. The experiment can be described thus: Docking, MD simulations and MM-PBSA binding free energy evaluations. Here is the method:
The X-ray structure of human AKR1B1 in complex with D-glyceraldehyde and the NADP cofactor (PDB code 3V36), as well as the co-crystal structure of human AKR1B1 in complex with a nitrofuryl-oxadiazol inhibitor (PDB code 2IKH), were downloaded from the Protein Data Bank. Molecular docking calculations were performed with GOLD 5.1 (CCDC Software Ltd., Cambridge, UK) with the Piecewise Linear Potential (PLP) fitness function; both the two X-ray structures and the previously predicted protein–substrate complexes (i.e., AKR1B1-L-idose, AKR1B1-HNE, and AKR1B1-GSHNE) were employed as the protein. […] When protein–substrate complexes were used as the receptor, the ten top-scored clusters of solutions in which the ligand formed at least one H-bond with the substrate were selected as the best clusters of solutions, which were considered for further analyses.
Molecular dynamics (MD) simulations were performed with AMBER 20 [32] using the ff14SB force field. General Amber force field (GAFF) parameters were used for the ligands, the substrates, and the cofactor, whose partial charges were calculated with the AM1-BCC method as implemented in the Antechamber suite of AMBER 20 (University of California, San Francisco, CA, USA). […] Each analyzed complex was placed in a rectangular parallelepiped water box, using the TIP3P explicit solvent model for water, and solvated with a 15 Å water cap. […]

For experiment [4], the system named is AKR1B1. The note with it: cited from earlier work.
Experiment [5] has as its target T1, human recombinant AKR1B1. The experiment can be described thus: AKR1B1 activity inhibition, decrease in absorbance at 340 nm linked to NADPH oxidation. Type of experiment: biochemical. Conditions: for remaining activity at 800 µM: in the presence of 0.8 mM compound, read-out: residual activity; for IC50: 10 mU AKR1B1, 37 °C, pH 6.8, 95% CLs in text. Here is the method: as §1
IC50 values were determined by non-linear regression analysis using GraphPad Prism version 7.04 (GraphPad Software, San Diego, CA, USA). Values were obtained from at least six different inhibitors concentrations (each assayed at least in triplicate) and are reported with their 95% Confidence Limits (CLs). […] The final concentration of ethanol in the assay was never higher than 1%. […] The percentage of inhibition was calculated referring to an assay performed using the same solvent concentration in the absence of inhibitors.
as §2

The mark [6] stands for this setting: GSHNE reduction, calculated using k+2 109 ± 8 min^−1.
The mark [7] stands for this setting: HNE reduction, calculated using k+2 78 ± 4 min^−1.
The mark [8] stands for this setting: L-idose reduction, calculated using k+2 195 ± 6 min^−1.

Turning to `CCCCCC(O)/C=C/C=O` (centres unmarked) [HNE, 4-hydroxynonenal], in experiment [1], the Michaelis-Menten constant (Km) turned out to be 51 ± 5 µM and the “kcat (k+2) of the substrate” value stood at 1.3 ± 0.067 s⁻¹. In experiment [2], the “binding affinity estimated for the substrate bound to AKR1B1” value is -18.6 kcal/mol.
With `CCCCCC(O)C(CC=O)SC[C@H](NC(=O)CC[C@H](N)C(=O)O)C(=O)NCC(=O)O` (some centres unmarked) [GSHNE, 3-glutathionyl-4-hydroxynonanal adduct], in experiment [1], the Michaelis constant (Km) came to 120 ± 16 µM and the “kcat (k+2) of the substrate” value was 1.82 ± 0.13 s⁻¹. Moreover, the “binding affinity estimated for the substrate bound to AKR1B1” value in experiment [2] was -30.3 kcal/mol.
Consider catechin gallate [CG], for which the inhibition type entry in experiment [1] (GSHNE reduction) was “uncompetitive inhibition”; in experiment [1] (L-idose reduction) it was “mixed inhibition type”. In addition, the “k+4/k+2 (%)” value in experiment [1] (setting [6]) is given as 3.8 ± 0.8%; in experiment [1] (setting [7]), “approximately 6%”; in experiment [1] (setting [8]), 0.7 ± 0.3%. The results for the “k+4” value in experiment [1] (GSHNE reduction), in experiment [1] (HNE reduction) and in experiment [1] (L-idose reduction) were 4.1 ± 0.8 min⁻¹, 4.7 ± 0.7 min⁻¹ and 1.4 ± 0.6 min⁻¹, respectively.
`O=C[C@H](O)[C@@H](O)[C@H](O)[C@@H](O)CO` [L-idose]: in experiment [1], the Michaelis constant (Km) came to 4260 ± 300 µM and the “kcat (k+2) of the substrate” value turned out to be 3.25 ± 0.1 s⁻¹. Further, the “increase in the binding affinity of the substrate for the complex” value in experiment [3] (due to the presence of GCG) is 32%. Further, in experiment [3] (presence versus absence of GCG), the “lowering of substrate binding free energy with GCG versus without” value is 5.5 kcal/mol. Moreover, the “binding affinity estimated for the substrate bound to AKR1B1” value in experiment [2] was -17.4 kcal/mol.
Regarding `O=C(O)c1cc(O)c(O)c(O)c1` [GA, gallic acid], the “inhibitory action on AKR1B1 (in words)” value in experiment [4] is listed as “act as ARDIs, even though not complete”.
On to `Oc1cc(O)c2c(c1)O[C@H](c1ccc(O)c(O)c1)[C@H](O)C2` [EC, epicatechin], for which the remaining activity at 800 µM in experiment [5] is approximately 70%.
For the compound `Oc1cc(O)c2c(c1)O[C@H](c1cc(O)c(O)c(O)c1)[C@H](O)C2` [EGC, epigallocatechin], the “inhibitory action on AKR1B1 (in words)” value in experiment [4] is “inhibits AKR1B1 irrespective of the used substrate”.
With `O=C(O[C@@H]1Cc2c(O)cc(O)cc2O[C@H]1c1cc(O)c(O)c(O)c1)c1cc(O)c(O)c(O)c1` [GCG, gallocatechin gallate], the figures for the inhibition type result in experiment [1] (GSHNE reduction) and in experiment [1] (L-idose reduction) were “uncompetitive inhibition” and “mixed inhibition type”, respectively. The “k+4” value in experiment [1] (GSHNE reduction) was 6.0 ± 1.0 min⁻¹; in experiment [1] (HNE reduction), 9.5 ± 0.9 min⁻¹; in experiment [1] (L-idose reduction), 5.6 ± 0.5 min⁻¹. Also, the “k+4/k+2 (%)” value is 12.2 ± 1.1% in experiment [1] (setting [7]) and 2.9 ± 0.25% in experiment [1] (setting [8]).
For the compound `Oc1cc(O)c2c(c1)O[C@H](c1cc(O)c(O)c(O)c1)[C@@H](O)C2` [GC, gallocatechin], the remaining activity at 800 µM in experiment [5] is approximately 70%.
For the compound `O=C(O[C@@H]1Cc2c(O)cc(O)cc2O[C@@H]1c1cc(O)c(O)c(O)c1)c1cc(O)c(O)c(O)c1` [EGCG, epigallocatechin gallate], the “inhibitory action on AKR1B1 (in words)” value in experiment [4] is “preserved only HNE reduction; also recorded: act as ARDIs, even though not complete”.
As for `O=C(O[C@@H]1Cc2c(O)cc(O)cc2O[C@@H]1c1ccc(O)c(O)c1)c1cc(O)c(O)c(O)c1` [ECG, epicatechin gallate], the concentration for half-maximal inhibition (IC50) in experiment [5] (IC50 for GSHNE reduction, […] GSHNE as substrate) is 143 µM; in experiment [5] (IC50 for HNE reduction, 0.03 mM HNE as substrate), 257 µM; in experiment [5] (IC50 for the reduction of L-idose, 8 mM L-idose as substrate), 67 µM. The “Ki/Ki*” value in experiment [1] (GSHNE reduction) is listed as “approximately 2”. For the same compound, the inhibition type entry in experiment [1] (GSHNE reduction) and in experiment [1] (L-idose reduction) was “mixed inhibition type” throughout. Moreover, the “k+4/k+2 (%)” value in experiment [1] (setting [6]) is reported as 14.3 ± 3.9%; in experiment [1] (setting [7]) it was 8.6 ± 0.4%; in experiment [1] (setting [8]), 2.7 ± 1.7%. The “k+4” value in experiment [1] (GSHNE reduction) amounted to 15.6 ± 4.3 min⁻¹; in experiment [1] (HNE reduction) it was 6.7 ± 2.7 min⁻¹; in experiment [1] (L-idose reduction), 5.2 ± 3.2 min⁻¹. In addition, the Ki was 46 ± 11 µM in experiment [1] (Ki*, GSHNE reduction, apparent dissociation constant of ternary complex EIS); 54 ± 9 µM in experiment [1] (Ki*, HNE reduction, apparent dissociation constant of ternary complex EIS); 46 ± 5 µM in experiment [1] (Ki*, L-idose reduction, apparent dissociation constant of ternary complex EIS); 91 ± 10 µM in experiment [1] (Ki, GSHNE reduction, dissociation constant of enzyme-inhibitor complex); more than 10000 µM in experiment [1] (Ki, HNE reduction, dissociation constant of enzyme-inhibitor complex); 116 ± 8 µM in experiment [1] (Ki, L-idose reduction, dissociation constant of enzyme-inhibitor complex).
For the compound `C[C@@H]1O[C@@H](O[C@H]2[C@H](O[C@H]3[C@H](O[C@H]4CC[C@@]5(C)[C@@H](CC[C@]6(C)[C@@H]5CC=C5[C@@H]7CC(C)(C)C[C@@H](O)[C@]7(C)CC[C@]56C)[C@@]4(C)CO)O[C@H](C(=O)O)[C@@H](O)[C@@H]3O)O[C@H](CO)[C@H](O)[C@@H]2O)[C@H](O)[C@H](O)[C@H]1O` [soyasaponin Bb], in experiment [4], the “inhibitory action on AKR1B1 (in words)” value is reported as “acting as ARDI”.
